Results published in ChEMBL document CHEMBL1201862, “PubChem BioAssay data set” (2004).
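Assay format: 96-well plates, 48-hour exposure. GI50 is the concentration that inhibits growth by half.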 The source made the active and inactive calls. Rule as the data show it: active = GI50 up to about 1.1 µM and inactive = higher.

Assays:
Experiment in all cases: inhibition of tumour cell growth, NCI panel, 48 h
DLD-1 = tested on: DLD-1
XF498 = tested on: XF498
LXFL 529 = tested on: LXFL 529
RXF 631 = tested on: RXF 631
SNB-78 = tested on: SNB-78
M19-MEL = tested on: M19-MEL
DMS-114 = tested on: DMS-114
KM-20L2 = tested on: KM-20L2
DMS-273 = tested on: DMS-273

Measured: GI50

COC(=O)Cc1cc(=O)[nH]c2c1C(=O)CCC2
inactive: DLD-1 > 100 µM | XF498 > 100 µM | LXFL 529 > 100 µM

N#Cc1c(NN)nc(NN)c(C#N)c1-c1ccccc1
inactive: RXF 631 > 100 µM | SNB-78 > 100 µM | M19-MEL > 100 µM | DMS-114 > 100 µM | DLD-1 > 100 µM | KM-20L2 > 100 µM | DMS-273 > 100 µM | XF498 > 100 µM | LXFL 529 > 100 µM

C1CN(c2nnc(N3CCC3)nn2)C1
inactive: RXF 631 > 10 µM | SNB-78 57.4 µM | M19-MEL 15.1 µM | DMS-114 21.3 µM | DLD-1 > 100 µM | KM-20L2 > 44.8 µM | DMS-273 > 43.2 µM | XF498 22.2 µM | LXFL 529 21.3 µM

CCC(=O)c1cn(C)c(=O)c2ccccc12
inactive: RXF 631 > 100 µM | SNB-78 > 100 µM | DMS-114 > 100 µM | DLD-1 > 100 µM | KM-20L2 > 100 µM | DMS-273 > 100 µM | XF498 > 100 µM | LXFL 529 > 100 µM

O=S(=O)(O)CS(=O)(=O)OCCCl
inactive: RXF 631 > 100 µM | SNB-78 > 100 µM | M19-MEL > 100 µM | DMS-114 > 100 µM | DLD-1 > 100 µM | KM-20L2 > 100 µM | DMS-273 > 100 µM | XF498 > 100 µM | LXFL 529 > 100 µM

COC1/C(=C\C(C)=O)c2ccccc2N1C(C)=O (configuration not stated)
inactive: RXF 631 > 100 µM | M19-MEL > 100 µM | DLD-1 > 100 µM | KM-20L2 > 100 µM | DMS-273 > 100 µM | XF498 > 100 µM | LXFL 529 > 100 µM

c1ccc2c(CNCCCN3CCN(CCCNCc4cccc5ccccc45)CC3)cccc2c1
inactive: RXF 631 1.13 µM | SNB-78 2.21 µM | M19-MEL 1.89 µM | DMS-114 2 µM | DLD-1 1.75 µM | KM-20L2 1.7 µM | DMS-273 1.97 µM | XF498 1.77 µM | LXFL 529 1.77 µM

CC(=O)CC(=O)CCCC(=O)Nc1ccc(Cl)cc1C
inactive: RXF 631 > 100 µM | SNB-78 > 100 µM | M19-MEL > 100 µM | DMS-114 > 100 µM | DLD-1 > 100 µM | KM-20L2 > 100 µM | DMS-273 > 100 µM | LXFL 529 > 100 µM

O=C(CC1(O)C(=O)Nc2ccccc21)c1ccco1 (configuration not stated)
inactive: SNB-78 > 100 µM | M19-MEL > 100 µM | DMS-114 > 100 µM | DLD-1 > 100 µM | KM-20L2 > 100 µM | DMS-273 > 100 µM | XF498 > 100 µM | LXFL 529 > 100 µM

S=c1sc2c(n1-c1ccccc1)N=CNC2S (configuration not stated)
inactive: SNB-78 87.5 µM | M19-MEL 96.4 µM | DMS-114 31.1 µM | DLD-1 > 100 µM | KM-20L2 > 100 µM | DMS-273 > 100 µM | XF498 > 100 µM | LXFL 529 > 100 µM

COc1ccc(NC(=O)CC(=O)n2nc(-c3ccccc3)c(/N=N/c3ccccc3C(=O)O)c2-c2ccccc2)cc1
inactive: RXF 631 > 100 µM | M19-MEL > 100 µM | DMS-114 > 100 µM | DLD-1 > 100 µM | KM-20L2 > 100 µM | DMS-273 > 100 µM | LXFL 529 > 100 µM

COc1ccc2c(c1)[n+]([O-])c(C(N)=O)c(N)[n+]2[O-]
inactive: RXF 631 34 µM | SNB-78 > 100 µM | M19-MEL 73.3 µM | DMS-114 35.6 µM | DLD-1 > 100 µM | KM-20L2 37.2 µM | DMS-273 71.9 µM | LXFL 529 66.4 µM

O=[N+]([O-])c1ccc(/C=C/c2ccc(/C=C/c3ccc([N+](=O)[O-])cc3[N+](=O)[O-])cc2)c([N+](=O)[O-])c1
inactive: SNB-78 > 100 µM | DMS-114 > 100 µM | DLD-1 > 100 µM | KM-20L2 > 100 µM | DMS-273 > 100 µM | XF498 > 100 µM | LXFL 529 > 100 µM

O=[N+]([O-])c1cc2c(cc1O)[nH]c1cccc([N+](=O)[O-])c12
inactive: SNB-78 > 100 µM | M19-MEL > 100 µM | DMS-114 > 100 µM | DLD-1 > 100 µM | DMS-273 > 100 µM | XF498 > 100 µM

COc1ccc(Br)c(CCCCC(=O)O)c1
inactive: SNB-78 > 100 µM | M19-MEL > 100 µM | DMS-114 > 100 µM | DLD-1 > 100 µM | KM-20L2 > 100 µM | DMS-273 > 100 µM | XF498 > 100 µM | LXFL 529 > 100 µM

COc1ccc(/C(Cl)=C(\C=O)c2cc(OC)c(OC)c(OC)c2)cc1OC
inactive: RXF 631 19.7 µM | SNB-78 16.8 µM | M19-MEL 35.2 µM | DMS-114 12.1 µM | KM-20L2 22.8 µM | DMS-273 35.8 µM | LXFL 529 11.2 µM

Cc1ccc(C(=O)O/N=C2/CCCCC2CN(C)C)cc1 (configuration not stated)
inactive: RXF 631 > 100 µM | SNB-78 > 100 µM | M19-MEL > 100 µM | DMS-114 > 100 µM | DLD-1 > 100 µM | KM-20L2 > 100 µM | DMS-273 > 100 µM | LXFL 529 > 100 µM

CSc1cnc2ccccc2c1Sc1c[nH]c2ccccc2c1=O
inactive: SNB-78 57.3 µM | M19-MEL 5.22 µM | DMS-114 5.7 µM | DLD-1 11.7 µM | KM-20L2 4.42 µM | DMS-273 8.38 µM | LXFL 529 8.67 µM

c1ccc2cc(-c3cc4ccccc4s3)ccc2c1
inactive: SNB-78 > 100 µM | M19-MEL > 100 µM | DMS-114 > 100 µM | DLD-1 > 100 µM | KM-20L2 > 100 µM | DMS-273 > 100 µM | XF498 > 100 µM

CCOC(=O)C/C(=N\c1cc(C)on1)N(CC)CC.[O-][Cl+3]([O-])([O-])O
inactive: SNB-78 > 100 µM | M19-MEL > 100 µM | DMS-114 > 100 µM | DLD-1 > 100 µM | KM-20L2 > 100 µM | DMS-273 > 100 µM | XF498 > 100 µM | LXFL 529 > 100 µM

COc1ccc(/C(Cl)=C/c2ccc(Cl)c(Cl)c2)cc1
inactive: SNB-78 23.6 µM | M19-MEL 30.6 µM | DMS-114 16.6 µM | DLD-1 25.9 µM | KM-20L2 22.8 µM | DMS-273 24.4 µM | XF498 22.4 µM | LXFL 529 33.8 µM

COc1ccc(Cc2c(=O)[nH]nc3ccccc23)cc1
inactive: RXF 631 > 100 µM | SNB-78 > 100 µM | M19-MEL > 100 µM | DMS-114 > 100 µM | DLD-1 > 100 µM | KM-20L2 > 100 µM | DMS-273 > 100 µM | XF498 33 µM
